EP0003461A1, “Aminoalcohol derivatives of ortho-hydroxy-methyl cinnamate, process for their preparation and medicines containing them” (LIPHA, LYONNAISE INDUSTRIELLE PHARMACEUTIQUE, priority 1978, dated 1979)
Blank lines part the entries; values can stand above or below the molecule they belong to.

Tests used:
[1] = system: récepteurs bêta-1; experiment: Inhibition of isoprenaline-induced tachycardia in the anaesthetised, bivagotomised dog; format: in vivo, chien; conditions: dog anaesthetised with pentobarbital, isoprénaline 0,4 µg/kg/I.V., beta-1 blockade
Protocol: […]'action sur […] tension artérielle et du rythme cardiaque du […]é au pentobarbital et bivagotomisé recevant des injections […] (0,4 μg/kg/I.V.). L'hypotension provoquée par l'isoprénaline est due à une stimulation des récepteurs bêta-2 qui […] une vasodilatation. La […] produite par l'isopré- naline est due à une stimulation des récepteursbêta-1 cardiaques oui […] une accélération de son rythme de contraction. Dans l'inhibition […] visualisant un effet de blocage des récepteurs bêta-1, on a déterminé la dose efficace 50 en mg/kg/I.V.

[2] = Clinical trial observations in patients given 200 mg tablets; format: in vivo
Protocol: Parmi les observations recueillies en essai clinique, avec administration de comprimés titrés à 200 mg de principe actif, le chlorhydrate de l'ortho [(diméthoxy-3,4 phénéthylamino) -3 hydroxy-2 propoxy] trans cinnamate de méthyle, on peut rapporter les trois suivantes : • Observation N°1: • Monsieur NOV...., 64 ans présente un état de mal angineux chroniaue avec huit crises par 24 heures. Le traitement consiste en un repos et la prise d'un comprimé à 200 mg du composé exemple 1 24 heures pendant 10 jours. Le résultat est un effet bradycardisant net; le pouls passe de 95 à 60 et une très nette diminution des crises dès le deuxième jour (2 à 3 par 24 heures) est notée. La tolérance est très bonne. • Obseryation N°2: • Monsieur CLI...., 75 ans présente un bloc auriculo- ventriculaire complet appareillé par pace-maker cardis à un rythme fixe (68/mn) avec parpsystolie. A l'suscultation on note un souffle systolique en écharpe. L'électrocardiogramme montre une paracystolie avec complexes spontanés à F.R. long et aspect de bloc gauche et co-plexe électro- entrainés. La radiographie montre une hypertrophie ventriculaire gauche modérée. Le traitement consiste en la prise journalière pendant 10 jours du composé exemple 1 à 200 mg.
Monsieur HEL ...., 44 ans a une hypertension artérielle depuis 3 ans; les chiffres habituels récents sont 180/110 mn Mg. L'étiologie est inconnue et il n'y a pas de complications. On associe au traitement consistant en la prise le matin d' 1 comprimé à 200 mg, pendant 15 jours, un régime hyposodé.

[3] = system: récepteurs bêta-2; experiment: Inhibition of isoprenaline-induced hypotension in the anaesthetised, bivagotomised dog; format: in vivo, chien; conditions: dog anaesthetised with pentobarbital, isoprénaline 0,4 µg/kg/I.V., beta-2 blockade
Description: L'hypotension provoquée par l'isoprénaline est due à une stimulation des récepteurs bêta-2 qui entraîne une vasodilatation. La tachycardie produite par l'isopré- naline est due à une stimulation des récepteursbêta-1 cardiaques oui entraîne une accélération de son rythme de contraction.

Structure (SMILES): CC(=O)Nc1ccc(OCC(O)CNC(C)C)cc1 (stereo not drawn) [Fractolol, 4' - [2-hydroxy-3 - (iso-propylamino)propoxy] acétanilide]
dose efficace 50 (DE 50), inhibition de la tachycardie à l'isoprénaline [1]: 0,61 mg/kg/I.V.

tolérance ([2]; Observation N°1: 200 mg per 24 h for 10 days): très bonne
tolérance ([2]; Observation N°2: 200 mg daily for 10 days): très bonne
Structure (SMILES): COC(=O)/C=C/c1ccccc1OCC(O)CNCCc1ccc(OC)c(OC)c1 (racemic) [Composé exemple 1, trans ortho [(3-4 diméthoxyphénéthyl)amino-3 hydroxy-2 propoxy] cinnamatede méthyle]
crises par 24 heures ([2]; Observation N°1: angina attacks from the second day, one 200 mg tablet per 24 h, before treatment eight per 24 h): 2 à 3 par 24 heures
pouls ([2]; Observation N°1: patient, chronic angina, one 200 mg tablet per 24 h for 10 days, before treatment 95): 60
résultat ([2]; Observation N°2: patient, complete AV block with pacemaker and parasystole, 200 mg daily for 10 days): disparition de la para- systolie
Pouls, Après ([2]; Observation N°3: after treatment, 200 mg per day for 15 days, before 70): 60
Tension artérielle debout, Après ([2]; Observation N°3: after treatment, 200 mg per day for 15 days, before 160/100): 140/88
Tension artérielle couché, Après ([2]; Observation N°3: after treatment, 200 mg per day for 15 days, before 165/102): 140/90
tolérance ([2]; Observation N°3: general and local tolerance, 200 mg per day for 15 days): bonne
résultat ([2]; Observation N°3: patient, arterial hypertension, one 200 mg tablet in the morning for 15 days, with low-sodium diet): très bon

Structure (SMILES): COC(=O)/C=C/c1ccccc1OCC(O)CNC(C)C (stereo not drawn) [LM 748, chlorhydrate de l'ortho (isopropylamino 3 - hydroxy-2 propoxy) trans cinnamate de méthyle]
dose efficace 50 (DE 50), inhibition de l'hypotension à l'isoprénaline [3]: 0,01 mg/kg/I.V.
